Read-outs that look alike come from different tables or passages of the source.
Experiments:
[1] = test system: proteolytic activity of infant urine; conditions: zinc sulfate heptahydrate 0-50 mM; FIG. 8
Description: The proteolytic activity of infant urine was measured using fluorescently labeled casein.
Two (2) infant urine (100 μL) samples were added to wells of a 96 white plate (Dynex) containing 80 μL of 12.5 μg/ml solution of a fluorescent dye-labeled casein substrate (EnzChek Protease Assay Kit (E-6639)) in 100 mM Tris-HCl, pH 8.0, and allowed to incubate for 60 minutes at 37° C. […] Reaction of the infant urine with the casein substrate cleaved the fluorescent dye from the substrate. RFUs were collected using the Fluoroskan Ascent System with excitation and emission filters of 485 and 538 nm, respectively. Data were collected each minute for 60 minutes at 37° C. and rates (RFU/min) from 30-50 minutes were calculated for each zinc concentration. Using the uninhibited wells as 100% protease activity, percent of urine proteolytic activity remaining was determined for each concentration of zinc inhibitor (Inhibited Rate/Uninhibited rate* 100).

[2] = test system: proteolytic activity of a fecal extract; conditions: zinc sulfate heptahydrate 0-1 mM; FIG. 7
Description: The supernatant was filtered through 0.22 micron cellulose acetate filters and stored at −80° C. until use.

[3] = not given; remark: listed apart in the source
[4] = test system: EpiDerm™ 201 synthetic skin (keratinocytes), interleukin-1 alpha release
Source text: The synthetic skin, EpiDerm™ 201 (MatTek Corporation, Ashland, Mass. contains keratinocytes that release interleukin-1 alpha (IL-1 alpha) when subjected to proteases in the fecal extract. When the IL-1 alpha was released, it diffused from the skin into the fluid below the EpiDerm™. Samples of this fluid were taken and analyzed for the presence of the IL-1 alpha. Higher levels of IL-1 alpha was indicative of greater skin irritation.
Prior to application onto the EpiDerm™, the fecal extract (10.4 μL) was pre-incubated for 30 minutes at room temperature with 250 mM zinc sulfate heptahydrate in water (2.6 μL). Water only and fecal extract only samples served as controls. After application of the samples to the EpiDerm™, 25 μL aliquots were removed from the underlying media at 8, 12, and 24 hours to test for the presence of the IL-1 alpha. The aliquots were directly added to a 1.5 mL micro-centrifuge tube containing 225 μL of filtered-sterilized 20 mM tris-HCl, pH 8.0, 1% BSA buffer and stored at −80° C. After all samples were collected, IL-1 alpha levels were quantified using the R&D Systems Interleukin-1 alpha Quantikine Kit (R&D Systems, Minneapolis, Minn.

[5] = 1.0 mM zinc sulfate heptahydrate
[6] = 2.5 mM zinc sulfate heptahydrate
[7] = 5.0 mM zinc sulfate heptahydrate
[8] = 10.0 mM zinc sulfate heptahydrate
[9] = 20.0 mM zinc sulfate heptahydrate
[10] = .1 mM zinc sulfate heptahydrate
[11] = increased concentration of zinc sulfate heptahydrate (Table 1)

Q: For `O.O.O.O.O.O.O.O=S(=O)([O-])[O-].[Zn+2]` [zinc sulfate heptahydrate], which “inhibition of hydrolysis of casein by infant urine (percent of urine proteolytic activity remaining)” value [1] is on record?
A: effectively inhibited the hydrolysis of casein by infant urine in a dose-dependent manner

Q: And the “inhibition of hydrolysis of casein by the fecal extract (percent of fecal proteolytic activity remaining)” value [2]?
A: effectively inhibited the hydrolysis of casein by the fecal extract in a dose-dependent manner

Q: What about the “pH, Infant Urine Example F” value [5] of the same compound?
A: 8.0

Q: What about the “pH, Infant Urine Example G” value [5] of the same compound?
A: 7.0

Q: And the “pH, Infant Urine Example H” value [5]?
A: 7.5

Q: What about the “pH, Infant Urine Example F” value [6] of the same compound?
A: 7.5-8.0

Q: And the “pH, Infant Urine Example G” value [6]?
A: 6.5

Q: What about the “pH, Infant Urine Example H” value [6] of the same compound?
A: 7.0-7.5

Q: And the “pH, Infant Urine Example F” value [7]?
A: 7.5

Q: What about the “pH, Infant Urine Example G” value [7] of the same compound?
A: 5.5

Q: And the “pH, Infant Urine Example H” value [7]?
A: 7.0

Q: And the “pH, Infant Urine Example F” value [8]?
A: 7.0

Q: What about the “pH, Infant Urine Example G” value [8] of the same compound?
A: 5.0

Q: And the “pH, Infant Urine Example H” value [8]?
A: 6.5

Q: And the “pH, Infant Urine Example F” value [9]?
A: 7.0

Q: And the “pH, Infant Urine Example G” value [9]?
A: 5.0

Q: What about the “pH, Infant Urine Example H” value [9] of the same compound?
A: 6.5

Q: What about the “pH, Infant Urine Example F” value [10] of the same compound?
A: 8.5

Q: What about the “pH, Infant Urine Example G” value [10] of the same compound?
A: 7.0

Q: What about the “pH, Infant Urine Example H” value [10] of the same compound?
A: 8.0

Q: And the “reduction of pH of the infant urine samples” value [11]?
A: 1.5-2.0 pH units

Q: And the “pH, Fecal Extract Example B” value [3, 5]?
A: 6.5

Q: And the “pH, Fecal Extract Example B” value [3, 6]?
A: 6.0-6.5

Q: What about the “pH, Fecal Extract Example B” value [3, 7] of the same compound?
A: 6.0

Q: And the “pH, Fecal Extract Example B” value [3, 8]?
A: 5.5

Q: What about the “pH, Fecal Extract Example B” value [3, 9] of the same compound?
A: 5.5

Q: What about the “pH, Fecal Extract Example B” value [3, 10] of the same compound?
A: 6.5

Q: What about the “reduction of pH of the fecal extract sample” value [3, 11] of the same compound?
A: 1 pH unit

Q: What about the “proteolytic activity of fecal extract on synthetic skin (IL-1 alpha release)” value ([4]; 0, 25, 50, 125 and 250 mM zinc sulfate heptahydrate, FIG. 10) of the same compound?
A: effectively inhibits the proteolytic activity of fecal extract in a dose-dependent manner

Q: And the “interleukin-1 alpha released into the underlying media” value ([4]; FE+zinc (250 mM, 2.6 μL) relative to FE+water, 8, 12 and 24 hours, FIG. 9)?
A: reduced the amount of interleukin-1 alpha released
